Test results: the NIST ThermoML archive (doi:10.1016/j.jct.2005.08.002)

Assay: xn = mol fraction of the nth substance listed
Conditions: 101 kPa, Liquid; for viscosity: Capillary tube (Ostwald / Ubbelohde) method; for speed of sound: Sing-around technique in a fixed-path interferometer; for mass density: Vibrating tube method

CC1CCCC1 [methylcyclopentane] + CC(C)=O
Conditions | mass density, 293.15 K [kg/m3] | mass density, 298.15 K [kg/m3] | mass density, 303.15 K [kg/m3] | speed of sound, 293.15 K [m/s] | speed of sound, 298.15 K [m/s] | speed of sound, 303.15 K [m/s] | viscosity, 293.15 K [mPa·s] | viscosity, 298.15 K [mPa·s] | viscosity, 303.15 K [mPa·s]
x1 = 0.05 | 785.97 | 780.3 | 774.59 | 1177 | 1155 | 1132 | 0.323 | 0.308 | 0.294
x1 = 0.0985 | 781.33 | 775.71 | 770.04 | 1171 | 1148 | 1126 | 0.323 | 0.308 | 0.294
x1 = 0.2004 | 773.02 | 767.49 | 761.9 | 1162 | 1139 | 1116 | 0.333 | 0.317 | 0.302
x1 = 0.3009 | 766.13 | 760.68 | 755.18 | 1157 | 1134 | 1111 | 0.347 | 0.33 | 0.316
x1 = 0.4024 | 760.79 | 755.43 | 750.02 | 1156 | 1133 | 1110 | 0.361 | 0.344 | 0.328
x1 = 0.5029 | 756.32 | 751.06 | 745.74 | 1157 | 1134 | 1111 | 0.378 | 0.359 | 0.341
x1 = 0.6052 | 752.71 | 747.55 | 742.34 | 1161 | 1137 | 1114 | 0.396 | 0.375 | 0.355
x1 = 0.7112 | 749.82 | 744.77 | 739.67 | 1166 | 1143 | 1120 | 0.418 | 0.395 | 0.374
x1 = 0.8139 | 747.82 | 742.89 | 737.92 | 1174 | 1151 | 1127 | 0.438 | 0.415 | 0.393
x1 = 0.9084 | 746.75 | 741.94 | 737.09 | 1184 | 1161 | 1137 | 0.467 | 0.442 | 0.418
x1 = 0.954 | 746.58 | 741.83 | 737.04 | 1190 | 1167 | 1143 | 0.482 | 0.457 | 0.432
x1 = 1 | 746.64 | 741.94 | 737.21 | 1197 | 1174 | 1150 | 0.504 | 0.476 | 0.45

CC1CCCC1 [methylcyclopentane] + CCCC(C)=O
Conditions | mass density, 293.15 K [kg/m3] | mass density, 298.15 K [kg/m3] | mass density, 303.15 K [kg/m3] | speed of sound, 293.15 K [m/s] | speed of sound, 298.15 K [m/s] | speed of sound, 303.15 K [m/s] | viscosity, 293.15 K [mPa·s] | viscosity, 298.15 K [mPa·s] | viscosity, 303.15 K [mPa·s]
x1 = 0.0493 | 802.59 | 797.76 | 792.9 | 1228 | 1207 | 1187 | 0.49 | 0.462 | 0.439
x1 = 0.0981 | 798.89 | 794.06 | 789.19 | 1224 | 1203 | 1182 | 0.485 | 0.459 | 0.434
x1 = 0.1993 | 791.61 | 786.76 | 781.89 | 1216 | 1194 | 1173 | 0.479 | 0.452 | 0.43
x1 = 0.3038 | 784.4 | 779.56 | 774.7 | 1207 | 1185 | 1164 | 0.473 | 0.449 | 0.425
x1 = 0.3972 | 778.23 | 773.38 | 768.51 | 1201 | 1179 | 1157 | 0.47 | 0.444 | 0.421
x1 = 0.5007 | 771.75 | 766.91 | 762.04 | 1196 | 1174 | 1152 | 0.469 | 0.444 | 0.42
x1 = 0.6069 | 765.58 | 760.74 | 755.87 | 1193 | 1171 | 1148 | 0.468 | 0.442 | 0.419
x1 = 0.6989 | 760.33 | 755.52 | 750.68 | 1191 | 1168 | 1146 | 0.47 | 0.444 | 0.422
x1 = 0.8052 | 754.83 | 750.05 | 745.24 | 1190 | 1168 | 1145 | 0.477 | 0.451 | 0.427
x1 = 0.9039 | 750.38 | 745.64 | 740.86 | 1193 | 1170 | 1147 | 0.487 | 0.458 | 0.433
x1 = 0.9508 | 748.6 | 743.88 | 739.12 | 1195 | 1172 | 1148 | 0.493 | 0.466 | 0.44
x1 = 1 | 746.64 | 741.94 | 737.21 | 1197 | 1174 | 1150 | 0.504 | 0.476 | 0.45

CC1CCCC1 [methylcyclopentane] + CCC(C)=O
Conditions | mass density, 293.15 K [kg/m3] | mass density, 298.15 K [kg/m3] | mass density, 303.15 K [kg/m3] | speed of sound, 293.15 K [m/s] | speed of sound, 298.15 K [m/s] | speed of sound, 303.15 K [m/s] | viscosity, 293.15 K [mPa·s] | viscosity, 298.15 K [mPa·s] | viscosity, 303.15 K [mPa·s]
x1 = 0.048 | 800.42 | 795.21 | 789.96 | 1208 | 1187 | 1165 | 0.397 | 0.378 | 0.36
x1 = 0.0982 | 795.99 | 790.8 | 785.57 | 1203 | 1181 | 1160 | 0.396 | 0.376 | 0.358
x1 = 0.1942 | 787.99 | 782.84 | 777.64 | 1195 | 1173 | 1151 | 0.397 | 0.377 | 0.358
x1 = 0.2911 | 780.72 | 775.6 | 770.44 | 1188 | 1166 | 1144 | 0.402 | 0.383 | 0.364
x1 = 0.398 | 773.4 | 768.32 | 763.2 | 1183 | 1161 | 1139 | 0.408 | 0.386 | 0.367
x1 = 0.5036 | 766.98 | 761.95 | 756.87 | 1181 | 1158 | 1136 | 0.416 | 0.394 | 0.374
x1 = 0.6033 | 761.6 | 756.62 | 751.6 | 1180 | 1157 | 1135 | 0.427 | 0.404 | 0.383
x1 = 0.6993 | 757.02 | 752.08 | 747.11 | 1181 | 1158 | 1135 | 0.439 | 0.415 | 0.394
x1 = 0.8045 | 752.53 | 747.68 | 742.78 | 1184 | 1161 | 1138 | 0.455 | 0.431 | 0.409
x1 = 0.906 | 749.02 | 744.24 | 739.42 | 1189 | 1166 | 1143 | 0.475 | 0.448 | 0.425
x1 = 0.9517 | 747.8 | 743.03 | 738.24 | 1193 | 1169 | 1146 | 0.487 | 0.46 | 0.436
x1 = 1 | 746.64 | 741.94 | 737.21 | 1197 | 1174 | 1150 | 0.504 | 0.476 | 0.45
